Reference: EP0584797A2, “Novel cephalosporin compounds and processes for the preparation thereof” (LUCKY LTD., priority 1992, dated 1994)
≈ marks a conversion by molar mass, not a printed value.

Assays:
Assay in all cases: minimal inhibitory concentration, two-fold agar dilution
Assay type in all cases: cell-based
[1] = system: Acinetobacter calcoaceticus ATCC 15437; details: ATCC15437, Muller-Hinton agar, 37°C, 20 hours, read-out: MIC values against the standard strains
In short: (§1)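 Compounds were serially diluted two-fold into Mueller-Hinton agar, and each plate was spot-inoculated with the test strain at 10⁷ CFU per ml. Plates were incubated at 37°C for 20 hours before MIC values were read.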

[2] = system: Bacillus cereus ATCC 11778; details: ATCC11778, Muller-Hinton agar, 37°C, 20 hours, read-out: MIC values against the standard strains
In short: as §1

[3] = system: Bacillus megaterium ATCC 9885; details: Priestia megaterium, ATCC9885; Muller-Hinton agar; 37°C; 20 hours; read-out: MIC values against the standard strains
In short: as §1

[4] = system: Citrobacter freundii ATCC 8090; details: ATCC8090, Muller-Hinton agar, 37°C, 20 hours, read-out: MIC values against the standard strains
In short: as §1

[5] = system: Enterobacter aerogenes ATCC 29751; details: Klebsiella aerogenes, ATCC29751; Muller-Hinton agar; 37°C; 20 hours; read-out: MIC values against the standard strains
In short: as §1

[6] = system: Enterobacter cloacae ATCC 27508; details: ATCC27508, Muller-Hinton agar, 37°C, 20 hours, read-out: MIC values against the standard strains
In short: as §1

[7] = system: Escherichia coli ATCC 10536; details: ATCC10536, Muller-Hinton agar, 37°C, 20 hours, read-out: MIC values against the standard strains
In short: as §1

[8] = system: Escherichia coli ATCC 25922; details: ATCC25922, Muller-Hinton agar, 37°C, 20 hours, read-out: MIC values against the standard strains
In short: as §1

[9] = system: Klebsiella pneumoniae ATCC 10031; details: ATCC10031, Muller-Hinton agar, 37°C, 20 hours, read-out: MIC values against the standard strains
In short: as §1

[10] = system: Micrococcus luteus ATCC 9341; details: ATCC9341, Muller-Hinton agar, 37°C, 20 hours, read-out: MIC values against the standard strains
In short: as §1

[11] = system: Morganella morganii ATCC 8076h; details: ATCC8076H, Muller-Hinton agar, 37°C, 20 hours, read-out: MIC values against the standard strains
In short: as §1

[12] = system: Proteus mirabilis ATCC 25933; details: ATCC25933, Muller-Hinton agar, 37°C, 20 hours, read-out: MIC values against the standard strains
In short: as §1

[13] = system: Proteus vulgaris ATCC 6059; details: ATCC6059, Muller-Hinton agar, 37°C, 20 hours, read-out: MIC values against the standard strains
In short: as §1

[14] = system: Providencia rettgeri ATCC 9250; details: ATCC9250, Muller-Hinton agar, 37°C, 20 hours, read-out: MIC values against the standard strains
In short: as §1

[15] = system: Pseudomonas aeruginosa ATCC 10145; details: ATCC10145, Muller-Hinton agar, 37°C, 20 hours, read-out: MIC values against the standard strains
In short: as §1

[16] = system: Pseudomonas aeruginosa ATCC 25619; details: ATCC25619, Muller-Hinton agar, 37°C, 20 hours, read-out: MIC values against the standard strains
In short: as §1

[17] = system: Pseudomonas aeruginosa ATCC 27853; details: ATCC27853, Muller-Hinton agar, 37°C, 20 hours, read-out: MIC values against the standard strains
In short: as §1

[18] = system: Salmonella typhimurium ATCC 14028; details: Salmonella enterica; Muller-Hinton agar; 37°C; 20 hours; read-out: MIC values against the standard strains
In short: as §1

[19] = system: Serratia marcescens ATCC 27117; details: ATCC27117, Muller-Hinton agar, 37°C, 20 hours, read-out: MIC values against the standard strains
In short: as §1

[20] = system: Shigella flexneri ATCC 11836; details: ATCC11836, Muller-Hinton agar, 37°C, 20 hours, read-out: MIC values against the standard strains
In short: as §1

[21] = system: Shigella sonnei ATCC 11060; details: ATCC11060, Muller-Hinton agar, 37°C, 20 hours, read-out: MIC values against the standard strains
In short: as §1

[22] = system: Staphylococcus aureus ATCC 10537; details: ATCC10537, Muller-Hinton agar, 37°C, 20 hours, read-out: MIC values against the standard strains
In short: as §1

[23] = system: Staphylococcus aureus ATCC 6538p; details: ATCC6538P, Muller-Hinton agar, 37°C, 20 hours, read-out: MIC values against the standard strains
In short: as §1

[24] = system: Staphylococcus epidermidis ATCC 12228; details: ATCC12228, Muller-Hinton agar, 37°C, 20 hours, read-out: MIC values against the standard strains
In short: as §1

[25] = system: Streptococcus faecalis ATCC 29212; details: Enterococcus faecalis, ATCC29212; Muller-Hinton agar; 37°C; 20 hours; read-out: MIC values against the standard strains
In short: as §1

[26] = system: Acinetobacter calcoaceticus ATCC 15473; details: ATCC15473, Muller-Hinton agar, 37°C, 20 hours, read-out: MIC values against the standard strains
In short: as §1

SMILES	MIC [2] [µg/mL]	MIC [3] [µg/mL]	MIC [4] [µg/mL]	MIC [5] [µg/mL]	MIC [6] [µg/mL]	MIC [7] [µg/mL]	MIC [8] [µg/mL]	MIC [9] [µg/mL]	MIC [10] [µg/mL]	MIC [11] [µg/mL]	MIC [12] [µg/mL]	MIC [13] [µg/mL]	MIC [14] [µg/mL]	MIC [15] [µg/mL]	MIC [16] [µg/mL]	MIC [17] [µg/mL]	MIC [18] [µg/mL]	MIC [19] [µg/mL]	MIC [20] [µg/mL]	MIC [21] [µg/mL]	also measured
CC[n+]1ccc(N)nc1SCC1=C(C(=O)[O-])N2C(=O)[C@@H](NC(=O)/C(=N\OC(C)(C)C(=O)O)c3csc(N)n3)[C@H]2SC1 [Example 12, 7-[(Z)-2-(2-aminothiazol-4-yl)-2-(carboxyprop-2-oxyimino)acetamido]-3-(4-amino-1-ethylpyrimidinium-2-yl)thiomethyl-3-cephem-4-carboxylate]	128 (≈ 206 µM)	0.5 (≈ 0.803 µM)	0.13 (≈ 0.209 µM)	2 (≈ 3.21 µM)	0.031 (≈ 0.0498 µM)	0.063 (≈ 0.101 µM)	0.063 (≈ 0.101 µM)	≤ 0.008	0.5 (≈ 0.803 µM)	0.016 (≈ 0.0257 µM)	1 (≈ 1.61 µM)	1 (≈ 1.61 µM)	≤ 0.008	16 (≈ 25.7 µM)	2 (≈ 3.21 µM)	8 (≈ 12.8 µM)	1 (≈ 1.61 µM)	0.5 (≈ 0.803 µM)	0.25 (≈ 0.401 µM)	0.5 (≈ 0.803 µM)	MIC [1]: 8 µg/mL (≈ 12.8 µM); MIC [22]: 2 µg/mL (≈ 3.21 µM); MIC [23]: 4 µg/mL (≈ 6.42 µM); MIC [24]: 2 µg/mL (≈ 3.21 µM); MIC [25]: 64 µg/mL (≈ 103 µM)
CNc1cc(N)nc(SCC2=C(C(=O)[O-])N3C(=O)[C@@H](NC(=O)/C(=N\OC(C)(C)C(=O)O)c4csc(N)n4)[C@H]3SC2)[n+]1C [Example 35, 7-[(Z)-2-(2-aminothiazol-4-yl)-2-(carboxyprop-2-oxyimino)acetamido]-3-(4-amino-6-methylamino-1-methylpyrimidinium-2-yl)thiomethyl-3-cephem-4-carboxylate]	128 (≈ 201 µM)	0.5 (≈ 0.784 µM)	0.063 (≈ 0.0988 µM)	1 (≈ 1.57 µM)	≤ 0.008	0.063 (≈ 0.0988 µM)	0.063 (≈ 0.0988 µM)	0.063 (≈ 0.0988 µM)	0.25 (≈ 0.392 µM)	≤ 0.008	0.031 (≈ 0.0486 µM)	0.063 (≈ 0.0988 µM)	≤ 0.008	2 (≈ 3.14 µM)	2 (≈ 3.14 µM)	2 (≈ 3.14 µM)	0.13 (≈ 0.204 µM)	0.13 (≈ 0.204 µM)	0.031 (≈ 0.0486 µM)	0.063 (≈ 0.0988 µM)	MIC [26]: 8 µg/mL (≈ 12.5 µM); MIC [22]: 2 µg/mL (≈ 3.14 µM); MIC [23]: 4 µg/mL (≈ 6.27 µM); MIC [24]: 2 µg/mL (≈ 3.14 µM); MIC [25]: > 128 µg/mL
CC(C)(O/N=C(\C(=O)N[C@@H]1C(=O)N2C(C(=O)[O-])=C(CSc3nc(N)c(N)c[n+]3N)CS[C@H]12)c1csc(N)n1)C(=O)O [Example 47, 7-[(Z)-2-(2-aminothiazol-4-yl)-2-(carboxyprop-2-oxyimino)acetamido]-3-(1,4,5-triaminopyrimidinium-2-yl)thiomethyl-3-cephem-4-carboxylate]	128 (≈ 205 µM)	0.5 (≈ 0.8 µM)	0.031 (≈ 0.0496 µM)	1 (≈ 1.6 µM)	≤ 0.008	0.031 (≈ 0.0496 µM)	0.031 (≈ 0.0496 µM)	0.031 (≈ 0.0496 µM)	0.25 (≈ 0.4 µM)	≤ 0.008	0.063 (≈ 0.101 µM)	0.063 (≈ 0.101 µM)	≤ 0.008	2 (≈ 3.2 µM)	1 (≈ 1.6 µM)	2 (≈ 3.2 µM)	0.13 (≈ 0.208 µM)	0.13 (≈ 0.208 µM)	0.031 (≈ 0.0496 µM)	0.031 (≈ 0.0496 µM)	MIC [26]: 16 µg/mL (≈ 25.6 µM); MIC [22]: 2 µg/mL (≈ 3.2 µM); MIC [23]: 4 µg/mL (≈ 6.4 µM); MIC [24]: 2 µg/mL (≈ 3.2 µM); MIC [25]: > 128 µg/mL
CCO/N=C(\C(=O)N[C@@H]1C(=O)N2C(C(=O)[O-])=C(CSc3nc(N)cc(OCC(=O)O)[n+]3C)CS[C@H]12)c1csc(N)n1 [Example 19, 7-[(Z)-2-(2-aminothiazol-4-yl)-2-(ethoxyimino)acetamido]-3-(4-amino-6-carboxymethoxy-1-methylpyrimidinium-2-yl)thiomethyl-3-cephem-4-carboxylate]	128 (≈ 205 µM)	0.25 (≈ 0.4 µM)	0.063 (≈ 0.101 µM)	1 (≈ 1.6 µM)	≤ 0.008	0.063 (≈ 0.101 µM)	0.063 (≈ 0.101 µM)	0.031 (≈ 0.0496 µM)	0.13 (≈ 0.208 µM)	≤ 0.008	0.063 (≈ 0.101 µM)	0.063 (≈ 0.101 µM)	≤ 0.008	32 (≈ 51.2 µM)	8 (≈ 12.8 µM)	16 (≈ 25.6 µM)	0.25 (≈ 0.4 µM)	0.25 (≈ 0.4 µM)	0.031 (≈ 0.0496 µM)	0.063 (≈ 0.101 µM)	MIC [26]: 16 µg/mL (≈ 25.6 µM); MIC [22]: 2 µg/mL (≈ 3.2 µM); MIC [23]: 4 µg/mL (≈ 6.4 µM); MIC [24]: 2 µg/mL (≈ 3.2 µM); MIC [25]: 64 µg/mL (≈ 102 µM)
